According to US20230226005A1, “Methods of Treating, Ameliorating, Shortening Duration, and/or Reversing Symptoms and/or Complications of a Coronavirus Infection” (Yale University, priority 2020, published 2023):

Test system: SARS-CoV-2
Experiment: Phase IIa double-blind placebo-controlled study, camostat mesylate 200 mg four times daily for seven days: viral load (log10) by COVID-19 RT-PCR of nasopharyngeal swab and saliva
Format: in vivo
Conditions: for viral load, Fitzmaurice mixed model, Common baseline: day 0; for viral load change Effect (camostat vs placebo), Fitzmaurice mixed model, visit 2 / viral load, Fitzmaurice mixed model, visit 2 / viral load, Fitzmaurice mixed model, visit 2 change: day 2; for viral load change Effect (camostat vs placebo), Fitzmaurice mixed model, visit 3(D4) / viral load, Fitzmaurice mixed model, visit 3(D4) / viral load, Fitzmaurice mixed model, visit 3(D4) change: day 4; for viral load change Effect (camostat vs placebo), Fitzmaurice mixed model, visit 4(D6) / viral load, Fitzmaurice mixed model, visit 4(D6) / viral load, Fitzmaurice mixed model, visit 4(D6) change: day 6

CN(C)C(=O)COC(=O)Cc1ccc(OC(=O)c2ccc(NC(=N)N)cc2)cc1 [camostat, 4-[[4-[(Aminoiminomethyl)amino]benzoyl]oxy]benzeneacetic acid 2-(dimethylamino)-2-oxoethyl ester]
viral load, Fitzmaurice mixed model, Common baseline (N gene): 6.5 (6, 6.9) ^ log10 | viral load change Effect (camostat vs placebo), Fitzmaurice mixed model, visit 2 (N gene): −0.06 (−0.83, 0.7) log10 | viral load, Fitzmaurice mixed model, visit 2 (N gene): 5.3 (4.6, 5.9) log10 | viral load, Fitzmaurice mixed model, visit 2 change (N gene): −1.2 (−1.8, −0.6) log10 | viral load change Effect (camostat vs placebo), Fitzmaurice mixed model, visit 3(D4) (N gene): −0.74 (−1.51, 0.03) log10 | viral load, Fitzmaurice mixed model, visit 3(D4) (N gene): 4.4 (3.8, 5.1) log10 | viral load, Fitzmaurice mixed model, visit 3(D4) change (N gene): −2 (−2.6, −1.5) log10 | viral load change Effect (camostat vs placebo), Fitzmaurice mixed model, visit 4(D6) (N gene): −0.23 (−1.4, 0.94) log10 | viral load, Fitzmaurice mixed model, visit 4(D6) (N gene): 2.8 (2, 3.7) ^ log10 | viral load, Fitzmaurice mixed model, visit 4(D6) change (N gene): −3.6 (−4.5, −2.8) log10 | change in viral load from baseline, Mean (N gene, visit 1 (day 0)): 0.00 log10 | change in viral load from baseline, Median (N gene, visit 1 (day 0)): 0.00 log10 | viral load (log10) Mean (N gene, visit 1 (day 0)): 6.35 log10 | viral load (log10) Median (N gene, visit 1 (day 0)): 6.47 log10 | change in viral load from baseline, Mean (N gene, visit 2 (day 2)): −1.15 log10 | change in viral load from baseline, Median (N gene, visit 2 (day 2)): −1.14 log10 | viral load (log10) Mean (N gene, visit 2 (day 2)): 4.89 log10 | viral load (log10) Median (N gene, visit 2 (day 2)): 4.49 log10 | change in viral load from baseline, Mean (N gene, visit 3 (day 4)): −2.07 log10 | change in viral load from baseline, Median (N gene, visit 3 (day 4)): −2.32 log10 | viral load (log10) Mean (N gene, visit 3 (day 4)): 4.35 log10 | viral load (log10) Median (N gene, visit 3 (day 4)): 4.56 log10 | change in viral load from baseline, Mean (N gene, visit 4 (day 6)): −3.41 log10 | change in viral load from baseline, Median (N gene, visit 4 (day 6)): −3.07 log10 | viral load (log10) Mean (N gene, visit 4 (day 6)): 2.58 log10 | viral load (log10) Median (N gene, visit 4 (day 6)): 2.48 log10 | change in viral load from baseline, Mean (N gene, visit 5 (day 14)): −5.21 log10 | change in viral load from baseline, Median (N gene, visit 5 (day 14)): −5.52 log10 | viral load (log10) Mean (N gene, visit 5 (day 14)): 1.21 log10 | viral load (log10) Median (N gene, visit 5 (day 14)): 0.12 log10 | change in viral load from baseline, Mean (N gene, visit 6 (day 28)): −6.33 log10 | change in viral load from baseline, Median (N gene, visit 6 (day 28)): −6.60 log10 | viral load (log10) Mean (N gene, visit 6 (day 28)): 0.05 log10 | viral load (log10) Median (N gene, visit 6 (day 28)): 0.00 log10 | change in viral load from baseline, Mean (ORF1ab gene, visit 1 (day 0)): 0.00 log10 | change in viral load from baseline, Median (ORF1ab gene, visit 1 (day 0)): 0.00 log10 | viral load (log10) Mean (ORF1ab gene, visit 1 (day 0)): 6.17 log10 | viral load (log10) Median (ORF1ab gene, visit 1 (day 0)): 6.50 log10 | change in viral load from baseline, Mean (ORF1ab gene, visit 2 (day 2)): −1.17 log10 | change in viral load from baseline, Median (ORF1ab gene, visit 2 (day 2)): −1.04 log10 | viral load (log10) Mean (ORF1ab gene, visit 2 (day 2)): 4.71 log10 | viral load (log10) Median (ORF1ab gene, visit 2 (day 2)): 4.20 log10 | change in viral load from baseline, Mean (ORF1ab gene, visit 3 (day 4)): −2.14 log10 | change in viral load from baseline, Median (ORF1ab gene, visit 3 (day 4)): −2.33 log10 | viral load (log10) Mean (ORF1ab gene, visit 3 (day 4)): 4.10 log10 | viral load (log10) Median (ORF1ab gene, visit 3 (day 4)): 4.41 log10 | change in viral load from baseline, Mean (ORF1ab gene, visit 4 (day 6)): −3.39 log10 | change in viral load from baseline, Median (ORF1ab gene, visit 4 (day 6)): −3.41 log10 | viral load (log10) Mean (ORF1ab gene, visit 4 (day 6)): 2.42 log10 | viral load (log10) Median (ORF1ab gene, visit 4 (day 6)): 2.47 log10 | change in viral load from baseline, Mean (ORF1ab gene, visit 5 (day 14)): −5.19 log10 | change in viral load from baseline, Median (ORF1ab gene, visit 5 (day 14)): −5.61 log10 | viral load (log10) Mean (ORF1ab gene, visit 5 (day 14)): 1.04 log10 | viral load (log10) Median (ORF1ab gene, visit 5 (day 14)): 0.00 log10 | change in viral load from baseline, Mean (ORF1ab gene, visit 6 (day 28)): −6.15 log10 | change in viral load from baseline, Median (ORF1ab gene, visit 6 (day 28)): −6.57 log10 | viral load (log10) Mean (ORF1ab gene, visit 6 (day 28)): 0.05 log10 | viral load (log10) Median (ORF1ab gene, visit 6 (day 28)): 0.00 log10 | viral load, Fitzmaurice mixed model, Common baseline (ORF1ab): 6.3 (5.8, 6.8) log10 | viral load change Effect (camostat vs placebo), Fitzmaurice mixed model, visit 2 (ORF1ab): 0.28 (−0.57, 1.13) log10 | viral load, Fitzmaurice mixed model, visit 2 (ORF1ab): 5 (4.3, 5.8) log10 | viral load, Fitzmaurice mixed model, visit 2 change (ORF1ab): −1.2 (−1.9, −0.6) log10 | viral load change Effect (camostat vs placebo), Fitzmaurice mixed model, visit 3(D4) (ORF1ab): −0.46 (−1.3, 0.39) log10 | viral load, Fitzmaurice mixed model, visit 3(D4) (ORF1ab): 4.2 (3.5, 4.9) log10 | viral load, Fitzmaurice mixed model, visit 3(D4) change (ORF1ab): −2.1 (−2.7, −1.5) log10 | viral load change Effect (camostat vs placebo), Fitzmaurice mixed model, visit 4(D6) (ORF1ab): −0.09 (−1.27, 1.08) log10 | viral load, Fitzmaurice mixed model, visit 4(D6) (ORF1ab): 2.6 (1.8, 3.5) log10 | viral load, Fitzmaurice mixed model, visit 4(D6) change (ORF1ab): −3.6 (−4.5, −2.7) log10 | viral load, Fitzmaurice mixed model, Common baseline (S gene): 5 (4.1, 5.9) log10 | viral load change Effect (camostat vs placebo), Fitzmaurice mixed model, visit 2 (S gene): 0.36 (−0.72, 1.43) log10 | viral load, Fitzmaurice mixed model, visit 2 (S gene): 3.6 (2.6, 4.6) log10 | viral load, Fitzmaurice mixed model, visit 2 change (S gene): −1.4 (−2.2, −0.5) log10 | viral load change Effect (camostat vs placebo), Fitzmaurice mixed model, visit 3(D4) (S gene): −0.13 (−1.07, 0.8) log10 | viral load, Fitzmaurice mixed model, visit 3(D4) (S gene): 2.7 (1.9, 3.5) log10 | viral load, Fitzmaurice mixed model, visit 3(D4) change (S gene): −2.3 (−3.1, −1.5) log10 | viral load change Effect (camostat vs placebo), Fitzmaurice mixed model, visit 4(D6) (S gene): 0.19 (−0.98, 1.36) log10 | viral load, Fitzmaurice mixed model, visit 4(D6) (S gene): 1.7 (0.8, 2.6) log10 | viral load, Fitzmaurice mixed model, visit 4(D6) change (S gene): −3.2 (−4.3, −2.2) log10 | change in viral load from baseline, Mean (S gene, visit 1 (day 0)): 0.00 log10 | change in viral load from baseline, Median (S gene, visit 1 (day 0)): 0.00 log10 | viral load (log10) Mean (S gene, visit 1 (day 0)): 4.50 log10 | viral load (log10) Median (S gene, visit 1 (day 0)): 5.02 log10 | change in viral load from baseline, Mean (S gene, visit 2 (day 2)): −1.24 log10 | change in viral load from baseline, Median (S gene, visit 2 (day 2)): −0.89 log10
